Read-outs that look alike come from different tables or passages of the source. Bridge positions count the residues as written; N and C are the ends. Square brackets hold non-standard residues; d marks the D form. Peptide text beside a SMILES is read from it. S5 = C=CCCC[C@](C)(N)C(=O)O
Columns and labels:
[1] = tested on: HIV-1 AZT-R; conditions: read-out: IC50 (μM ± SD), HIV-1 AZT-R; RT-resistant isolate, subtype B, MT-2, coreceptor X4
[2] = tested on: HIV-1 MN; conditions: read-out: IC50 (μM ± SD), HIV-1 MN; laboratory strain, subtype B, MT-2, coreceptor X4
[3] = tested on: HIV-1RF/L-323-12-3; conditions: read-out: IC50 (μM ± SD), HIV-1RF/L-323-12-3; PR-resistant isolate, subtype B, MT-2, coreceptor X4
[4] = tested on: HIV-1 IIIB
[5] = tested on: HIV-1 98CN009; assay: Inhibition of primary HIV-1 isolate, p24 ELISA, PBMC; type: cell-based; conditions: subtype C, coreceptor R5, read-out: IC50 (μM ± SD), HIV-1 98CN009
Description: (§1) The inhibitory activity of peptides on infection by primary HIV-1 isolates was determined as previously described (Jiang et al., Antimicrob. Agents Chemother. 48:4349-4359, 2004). Peripheral blood mononuclear cells (PBMCs) were isolated from the blood of healthy donors at the New York Blood Center by standard density gradient centrifugation using Histopaque-1077 (Sigma-Aldrich). The cells were cultured at 37° C. for 2 hr. Nonadherent cells were collected and resuspended at 5×10^6 cells/ml RPMI-1640 medium containing 10% FBS, 5 μg/ml PHA, and 100 U/ml IL-2 (Sigma-Aldrich), followed by incubation at 37° C. for 3 days. The PHA-stimulated cells (5×10^4 cells/well) were infected with primary HIV-1 isolates at 500 TCID50 (0.01 MOI) in the absence or presence of peptide inhibitor at graded concentrations. Culture media were changed every 3 days and replaced with fresh media containing freshly prepared inhibitor. The supernatants were collected 7 days post-infection and tested for p24 antigen by ELISA (FIG. 6). The percent inhibition of p24 production, IC50 and IC90 values were calculated by the GraphPad Prism software (GraphPad Software Inc.).
(§2) NYAD-201, NYAD-202 and NYAD-203 were also tested against a set of primary HIV-1 isolates in PBMC representing mostly group M and one from group O with diverse coreceptor usage. […] The inhibitory activities of the peptides against this diverse range of primary isolates were similar, indicating its effectiveness against a wide range of HIV-1 isolates.

[6] = tested on: HIV-1 BCF02; assay: as above; type: cell-based; conditions: (Group 0), coreceptor R5, read-out: IC50 (μM ± SD), HIV-1 BCF02
Description: as §1, §2

[7] = tested on: HIV-1 CMU02; assay: as above; type: cell-based; conditions: subtype EA, coreceptor X4, read-out: IC50 (μM ± SD), HIV-1 CMU02
Description: as §1, §2

[8] = tested on: HIV-1 93RW024; assay: as above; type: cell-based; conditions: subtype A, coreceptor R5X4, read-out: IC50 (μM ± SD), HIV-1 93RW024
Description: as §1, §2

[9] = tested on: HIV-1 93BR020; assay: as above; type: cell-based; conditions: subtype F, coreceptor R5X4, read-out: IC50 (μM ± SD), HIV-1 93BR020
Description: as §1, §2

[10] = tested on: HIV-1 92UG029; assay: as above; type: cell-based; conditions: subtype A, coreceptor X4, read-out: IC50 (μM ± SD), HIV-1 92UG029
Description: as §1, §2

[11] = tested on: HIV-1 92US657; assay: as above; type: cell-based; conditions: subtype B, coreceptor R5, read-out: IC50 (μM ± SD), HIV-1 92US657
Description: as §1, §2

[12] = tested on: HIV-1 93IN101; assay: as above; type: cell-based; conditions: subtype C, coreceptor R5, read-out: IC50 (μM ± SD), HIV-1 93IN101
Description: as §1, §2

[13] = tested on: HIV-1 RU570; assay: as above; type: cell-based; conditions: subtype G, coreceptor R5, read-out: IC50 (μM ± SD), HIV-1 RU570
Description: as §1, §2

[14] = tested on: Jurkat cells; assay: Cytotoxicity, LDH leakage, Jurkat cells; type: cell-based; conditions: 30 min, 2 hr and 4 hr of exposure
Description: Cytotoxicity was also evaluated in Jurkat cells using a Promega LDH leakage detection kit. Jurkat cells were plated at 10^4 cells/well in a volume of 200 μl. The test was performed after 30 min, 2 hr and 4 hr of exposure to the NYAD-201, NYAD-202 and NYAD-203 compounds.

SMILES: CSCC[C@@H]1NC(=O)[C@H](Cc2c[nH]c3ccccc23)NC(=O)[C@@](C)(NC(=O)[C@H](CCCCN)NC(=O)[C@@H](NC(=O)[C@H](CCC(=O)O)NC(=O)[C@H](CCC(N)=O)NC(=O)[C@H](C)N)C(C)C)CCCC=CCCC[C@@](C)(C(=O)N[C@H](C(=O)N[C@@H](CC(C)C)C(=O)N[C@@H](CC(C)C)C(=O)N[C@H](C(=O)N[C@@H](C)C(N)=O)C(C)C)[C@@H](C)O)NC(=O)[C@H]([C@@H](C)O)NC1=O [NYAD-201, AQEVKXWMTXTLLVA] (H-AQEVK[S5]WMT[S5]TLLVA-NH2; staple 6-10)
- IC50 [1]: 8 ± 1.27 µM
- IC50 [2]: 3.03 ± 0.61 µM
- IC50 [3]: 5.6 ± 0.5 µM
- IC50 ([4]; read-out: IC50 (μM ± SD), HIV-1 IIIB, laboratory strain, subtype B, MT-2, coreceptor X4): 4.29 ± 0.62 µM
- IC50 ([4]; read-out: IC50 (μM) ± SD, antiviral activity against HIV-1 IIIB, MT-2 cells, p24 production, fourth day post-infection): 4.29 ± 0.62 µM
- IC50 [5]: 5.31 ± 0.83 µM
- IC50 [6]: 15.8 ± 3.43 µM
- IC50 [7]: 7.36 ± 0.69 µM
- IC50 [8]: 9.88 ± 0.3 µM
- IC50 [9]: 2.78 ± 0.57 µM
- IC50 [10]: 7.88 ± 1.01 µM
- IC50 [11]: 6.72 ± 0.98 µM
- IC50 [12]: 1.58 ± 0.57 µM
- IC50 [13]: 7.48 ± 1.21 µM
- Cytotoxicity in Jurkat cells (LDH leakage) [14]: did not demonstrate toxicity

Reference: patent US8933019B2, “Antiviral cell-penetrating peptides” (priority 2008, dated 2015)
